Patent US8802597B2, “Herbicidal pyrimidines” (E I du Pont de Nemours and Company, priority 2003, dated 2014)
Like-named read-outs stand apart in the source and are kept apart here.

What was measured:
Assay type in all cases: in vivo
[1] = system: Surinam grass (Brachiaria decumbens); test: Test B pre/postemergence; settings: Urochloa decumbens; for pest or weed control at 125 g/ha: 125 g ai/ha; for pest or weed control at 500 g/ha: 500 g ai/ha
In short: (§1)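 Test chemicals in a non-phytotoxic solvent mixture with surfactant were applied preemergence to planted seeds and postemergence to plants 2 to 18 cm tall (1- to 4-leaf stage). After 13 to 15 days in a greenhouse, injury was visually rated against untreated controls on a 0 to 100 scale.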

[2] = system: barnyardgrass (Echinochloa crus-galli); test: Test B pre/postemergence; settings: Echinochloa crus-galli; for pest or weed control at 125 g/ha: 125 g ai/ha; for pest or weed control at 500 g/ha: 500 g ai/ha
In short: as §1

[3] = system: cocklebur (Xanthium strumarium); test: Test B pre/postemergence; settings: Xanthium strumarium; for pest or weed control at 125 g/ha: 125 g ai/ha; for pest or weed control at 500 g/ha: 500 g ai/ha
In short: as §1

corn (Zea mays) = test: Test B pre/postemergence; settings: Zea mays
In short: as §1

[4] = system: crabgrass (Digitaria sanguinalis); test: Test B pre/postemergence; settings: Digitaria sanguinalis; for pest or weed control at 125 g/ha: 125 g ai/ha; for pest or weed control at 500 g/ha: 500 g ai/ha
In short: as §1

[5] = system: giant foxtail (Setaria faberii); test: Test B pre/postemergence; settings: Setaria faberi; for pest or weed control at 125 g/ha: 125 g ai/ha; for pest or weed control at 500 g/ha: 500 g ai/ha
In short: as §1

[6] = system: lambsquarters (Chenopodium album); test: Test B pre/postemergence; settings: Chenopodium album; for pest or weed control at 125 g/ha: 125 g ai/ha; for pest or weed control at 500 g/ha: 500 g ai/ha
In short: as §1

[7] = system: morningglory (Ipomoea coccinea); test: Test B pre/postemergence; settings: Ipomoea; for pest or weed control at 125 g/ha: 125 g ai/ha; for pest or weed control at 500 g/ha: 500 g ai/ha
In short: as §1

[8] = system: pigweed (Amaranthus retroflexus); test: Test B pre/postemergence; settings: Amaranthus retroflexus; for pest or weed control at 125 g/ha: 125 g ai/ha; for pest or weed control at 500 g/ha: 500 g ai/ha
In short: as §1

[9] = system: velvetleaf (Abutilon theophrasti); test: Test B pre/postemergence; settings: Abutilon theophrasti; for pest or weed control at 125 g/ha: 125 g ai/ha; for pest or weed control at 500 g/ha: 500 g ai/ha
In short: as §1

[10] = system: wheat (Triticum aestivum); test: Test B pre/postemergence; settings: Triticum aestivum; for plant injury at 125 g/ha: 125 g ai/ha; for plant injury at 500 g/ha: 500 g ai/ha
In short: as §1

[11] = system: blackgrass (Alopecurus myosuroides); test: Test B postemergence; settings: Alopecurus myosuroides, post-emergence
In short: as §1

wild oat (Avena fatua) = test: Test B postemergence; settings: Avena fatua, post-emergence
In short: as §1

[12] = system: barnyardgrass (Echinochloa crus-galli); test: Test B flooded paddy test; settings: Echinochloa crus-galli, Flood, 1000 g ai/ha; scale 0 (no effect) to 100 (complete control); read-out: Plant response rating, Barnyardgrass
In short: (§2)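 Rice, umbrella sedge, duck salad and barnyardgrass grown to 2-leaf stage under flooded paddy conditions and treated with formulated test chemicals. Kept in greenhouse 13–15 days, then visually rated against untreated controls on a 0–100 scale (0 no effect, 100 complete control).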

[13] = system: duck salad (Heteranthera limosa); test: Test B flooded paddy test; settings: Heteranthera limosa, Flood, 1000 g ai/ha; scale 0 to 100; read-out: Plant response rating, Ducksalad
In short: as §2

rice (Oryza sativa) = test: Test B flooded paddy test; settings: Oryza sativa, Flood, 1000 g ai/ha; scale 0 to 100; read-out: Plant response rating, Rice
In short: as §2

[14] = system: umbrella sedge (Cyperus difformis); test: Test B flooded paddy test; settings: Cyperus difformis, Flood, 1000 g ai/ha; scale 0 to 100; read-out: Plant response rating, Sedge, Umbrella
In short: as §2

Q: `COC(=O)c1nc(C2CC2)nc(N)c1Cl` [Compound 9, methyl 6-amino-5-chloro-2-cyclopropyl-4-pyrimidinecarboxylate] was tested. Which pest or weed control at 125 g/ha ([1]; post-emergence, Postemergence, scale 0 to 100 (0 no effect, 100 complete control), read-out: Surinam Grass plant response rating) did it give?
A: 90%

Q: And the pest or weed control at 500 g/ha ([1]; post-emergence, Postemergence, scale 0 to 100, read-out: Plant response rating, Surinam Grass)?
A: 90%

Q: What about the pest or weed control at 125 g/ha ([1]; pre-emergence, Preemergence, scale 0 to 100 (0 no effect, 100 complete control), read-out: Plant response rating, Surinam Grass) of the same compound?
A: 70%

Q: And the pest or weed control at 500 g/ha ([1]; pre-emergence, Preemergence, scale 0 to 100 (0 no effect, 100 complete control), read-out: Surinam Grass plant response rating)?
A: 90%

Q: What about the pest or weed control at 125 g/ha ([2]; post-emergence, Postemergence, scale 0 to 100 (0 no effect, 100 complete control), read-out: Barnyardgrass plant response rating) of the same compound?
A: 90%

Q: What about the pest or weed control at 500 g/ha ([2]; post-emergence, Postemergence, scale 0 to 100, read-out: Plant response rating, Barnyardgrass) of the same compound?
A: 90%

Q: What about the pest or weed control at 125 g/ha ([2]; pre-emergence, Preemergence, scale 0 to 100 (0 no effect, 100 complete control), read-out: Plant response rating, Barnyardgrass) of the same compound?
A: 50%

Q: And the pest or weed control at 500 g/ha ([2]; pre-emergence, Preemergence, scale 0 to 100 (0 no effect, 100 complete control), read-out: Barnyardgrass plant response rating)?
A: 90%

Q: And the pest or weed control at 125 g/ha ([3]; post-emergence, Postemergence, scale 0 to 100 (0 no effect, 100 complete control), read-out: Cocklebur plant response rating)?
A: 100%

Q: And the pest or weed control at 500 g/ha ([3]; post-emergence, Postemergence, scale 0 to 100, read-out: Plant response rating, Cocklebur)?
A: 100%

Q: And the pest or weed control at 125 g/ha ([3]; pre-emergence, Preemergence, scale 0 to 100 (0 no effect, 100 complete control), read-out: Plant response rating, Cocklebur)?
A: 90%

Q: What about the pest or weed control at 500 g/ha ([3]; pre-emergence, Preemergence, scale 0 to 100 (0 no effect, 100 complete control), read-out: Cocklebur plant response rating) of the same compound?
A: 100%

Q: What about the plant injury at 125 g/ha (corn (Zea mays); post-emergence, Postemergence, 125 g ai/ha, scale 0 to 100 (0 no effect, 100 complete control), read-out: Corn plant response rating) of the same compound?
A: 70%

Q: What about the Corn plant response rating (crop injury, 0 = no effect, 100 = complete kill) at 500 g/ha (corn (Zea mays); post-emergence, Postemergence, 500 g ai/ha, scale 0 to 100) of the same compound?
A: 90%

Q: What about the Corn plant response rating (crop injury, 0 = no effect, 100 = complete kill) at 125 g/ha (corn (Zea mays); pre-emergence, Preemergence, 125 g ai/ha, scale 0 to 100 (0 no effect, 100 complete control)) of the same compound?
A: 50%

Q: And the plant injury at 500 g/ha (corn (Zea mays); pre-emergence, Preemergence, 500 g ai/ha, scale 0 to 100 (0 no effect, 100 complete control), read-out: Corn plant response rating)?
A: 80%

Q: What about the pest or weed control at 125 g/ha ([4]; post-emergence, Postemergence, scale 0 to 100 (0 no effect, 100 complete control), read-out: Crabgrass plant response rating) of the same compound?
A: 90%

Q: What about the pest or weed control at 500 g/ha ([4]; post-emergence, Postemergence, scale 0 to 100, read-out: Plant response rating, Crabgrass) of the same compound?
A: 90%

Q: And the pest or weed control at 125 g/ha ([4]; pre-emergence, Preemergence, scale 0 to 100 (0 no effect, 100 complete control), read-out: Plant response rating, Crabgrass)?
A: 90%

Q: What about the pest or weed control at 500 g/ha ([4]; pre-emergence, Preemergence, scale 0 to 100 (0 no effect, 100 complete control), read-out: Crabgrass plant response rating) of the same compound?
A: 100%

Q: And the pest or weed control at 125 g/ha ([5]; post-emergence, Postemergence, scale 0 to 100 (0 no effect, 100 complete control), read-out: Foxtail, Giant plant response rating)?
A: 90%

Q: What about the pest or weed control at 500 g/ha ([5]; post-emergence, Postemergence, scale 0 to 100, read-out: Plant response rating, Foxtail, Giant) of the same compound?
A: 90%

Q: And the pest or weed control at 125 g/ha ([5]; pre-emergence, Preemergence, scale 0 to 100 (0 no effect, 100 complete control), read-out: Plant response rating, Foxtail, Giant)?
A: 70%

Q: What about the pest or weed control at 500 g/ha ([5]; pre-emergence, Preemergence, scale 0 to 100 (0 no effect, 100 complete control), read-out: Foxtail, Giant plant response rating) of the same compound?
A: 80%

Q: What about the pest or weed control at 125 g/ha ([6]; post-emergence, Postemergence, scale 0 to 100 (0 no effect, 100 complete control), read-out: Lambsquarters plant response rating) of the same compound?
A: 90%

Q: What about the pest or weed control at 500 g/ha ([6]; post-emergence, Postemergence, scale 0 to 100, read-out: Plant response rating, Lambsquarters) of the same compound?
A: 100%

Q: And the pest or weed control at 125 g/ha ([6]; pre-emergence, Preemergence, scale 0 to 100 (0 no effect, 100 complete control), read-out: Plant response rating, Lambsquarters)?
A: 90%

Q: And the pest or weed control at 500 g/ha ([6]; pre-emergence, Preemergence, scale 0 to 100 (0 no effect, 100 complete control), read-out: Lambsquarters plant response rating)?
A: 100%

Q: What about the pest or weed control at 125 g/ha ([7]; post-emergence, Postemergence, scale 0 to 100 (0 no effect, 100 complete control), read-out: Morningglory plant response rating) of the same compound?
A: 100%

Q: What about the pest or weed control at 500 g/ha ([7]; post-emergence, Postemergence, scale 0 to 100, read-out: Plant response rating, Morningglory) of the same compound?
A: 100%

Q: What about the pest or weed control at 125 g/ha ([7]; pre-emergence, Preemergence, scale 0 to 100 (0 no effect, 100 complete control), read-out: Plant response rating, Morningglory) of the same compound?
A: 100%

Q: And the pest or weed control at 500 g/ha ([7]; pre-emergence, Preemergence, scale 0 to 100 (0 no effect, 100 complete control), read-out: Morningglory plant response rating)?
A: 100%

Q: And the pest or weed control at 125 g/ha ([8]; post-emergence, Postemergence, scale 0 to 100 (0 no effect, 100 complete control), read-out: Pigweed plant response rating)?
A: 100%

Q: And the pest or weed control at 500 g/ha ([8]; post-emergence, Postemergence, scale 0 to 100, read-out: Plant response rating, Pigweed)?
A: 100%

Q: What about the pest or weed control at 125 g/ha ([8]; pre-emergence, Preemergence, scale 0 to 100 (0 no effect, 100 complete control), read-out: Plant response rating, Pigweed) of the same compound?
A: 90%

Q: And the pest or weed control at 500 g/ha ([8]; pre-emergence, Preemergence, scale 0 to 100 (0 no effect, 100 complete control), read-out: Pigweed plant response rating)?
A: 100%

Q: And the pest or weed control at 125 g/ha ([9]; post-emergence, Postemergence, scale 0 to 100 (0 no effect, 100 complete control), read-out: Velvetleaf plant response rating)?
A: 100%

Q: What about the pest or weed control at 500 g/ha ([9]; post-emergence, Postemergence, scale 0 to 100, read-out: Plant response rating, Velvetleaf) of the same compound?
A: 100%

Q: And the pest or weed control at 125 g/ha ([9]; pre-emergence, Preemergence, scale 0 to 100 (0 no effect, 100 complete control), read-out: Plant response rating, Velvetleaf)?
A: 90%

Q: What about the pest or weed control at 500 g/ha ([9]; pre-emergence, Preemergence, scale 0 to 100 (0 no effect, 100 complete control), read-out: Velvetleaf plant response rating) of the same compound?
A: 100%

Q: And the plant injury at 125 g/ha ([10]; post-emergence, Postemergence, scale 0 to 100 (0 no effect, 100 complete control), read-out: Wheat plant response rating)?
A: 40%

Q: What about the plant injury at 500 g/ha ([10]; post-emergence, Postemergence, scale 0 to 100, read-out: Plant response rating, Wheat) of the same compound?
A: 70%

Q: What about the plant injury at 125 g/ha ([10]; pre-emergence, Preemergence, scale 0 to 100 (0 no effect, 100 complete control), read-out: Plant response rating, Wheat) of the same compound?
A: 40%

Q: And the plant injury at 500 g/ha ([10]; pre-emergence, Preemergence, scale 0 to 100 (0 no effect, 100 complete control), read-out: Wheat plant response rating)?
A: 80%

Q: What about the pest or weed control at 125 g/ha ([11]; 125 g ai/ha, scale 0 to 100 (0 no effect, 100 complete control), read-out: Blackgrass plant response rating) of the same compound?
A: 60%

Q: And the pest or weed control at 500 g/ha ([11]; 500 g ai/ha, scale 0 to 100, read-out: Plant response rating, Blackgrass)?
A: 80%

Q: And the pest or weed control at 125 g/ha (wild oat (Avena fatua); 125 g ai/ha, scale 0 to 100 (0 no effect, 100 complete control), read-out: Oat, Wild plant response rating)?
A: 20%

Q: What about the pest or weed control at 500 g/ha (wild oat (Avena fatua); 500 g ai/ha, scale 0 to 100, read-out: Plant response rating, Oat, Wild) of the same compound?
A: 70%

Q: What about the pest or weed control at 1000 g/ha [12] of the same compound?
A: 90%

Q: What about the pest or weed control at 1000 g/ha [13] of the same compound?
A: 100%

Q: And the plant injury at 1000 g/ha (rice (Oryza sativa))?
A: 80%

Q: What about the pest or weed control at 1000 g/ha [14] of the same compound?
A: 90%
